Results as given in patent US20250135072A1, “COMPOSITIONS COMPRISING A BIOABSORBABLE POLYMER AND METABOLIC INHIBITOR” (Board of Trustees of Michigan State University, priority 2022, published 2025).

Legend:
primary BMDMs [1] = assay: Seahorse assays (OCR, ECAR, PER) in primary BMDMs; format: cell-based, mouse; conditions: for metabolic reprogramming: BMDMs exposed to amorphous or crystalline PLA extract, dose-dependent; for ECAR / OCR / PER: Example 2, BMDMs exposed to PLA extracts of varied stereochemistries plus inhibitor
Excerpt: To determine the metabolic pathways responsible for the observed bioenergetic changes, Seahorse assays were used to measure oxygen consumption rate (OCR), extracellular acidification rate (ECAR) and lactate-linked proton efflux rate (PER) in a customized medium (pH 7.4). Basal measurements of OCR, ECAR, and PER were obtained in real time using the Seahorse XFe-96 Extracellular Flux Analyzer (Agilent Technologies). Prior to running the assay, cell culture medium was washed with and replaced by the Seahorse XF DMEM medium (pH 7.4) supplemented with 25 mM D-glucose and 4 mM glutamine. The Seahorse plates were equilibrated in a non-CO2 incubator for an hour prior to the assay. The Seahorse ATP rate and cell energy phenotype assays were run according to manufacturer's instruction and all reagents for the Seahorse assays were sourced from Agilent Technologies. Wave software (Version 2.6.1) was used to export Seahorse data directly as means±standard deviation (SD).
Seahorse assays measures ECAR as an index of glycolytic flux, OCR as an index of oxidative phosphorylation and PER as an index of monocarboxylate transporter function in live cells; and are used to assess for metabolic reprogramming. Primary BMDMs exposed to amorphous PLA extract were metabolically altered, showing a 2-fold increase in oxidative phosphorylation (OCR; FIG. 10), 3.5-fold increase in glycolytic flux (ECAR; FIG. 11) and 3.5-fold increase in monocarboxylate transporter activity (PER; FIG. 12) in comparison to untreated BMDMs.

primary BMDMs [2] = assay: Crystal violet cell viability / cell number assay in primary BMDMs; format: cell-based, mouse; conditions: BMDMs treated with amorphous or crystalline PLA extract
Procedure: Breakdown products of PLA (hereafter “extracts”) were generated in serum-containing media and used after twelve days of incubation in a shaker at 37° C. […] Immune cells were maintained in the PLA extracts for twelve days. BMDMs derived from C57BL/6J mice (Jackson Laboratories) of 3-4 months were used. Mouse embryonic fibroblasts (NIH 3T3 cells, hereafter “MEFs”) were stably transfected with a Sleeping Beauty transposon plasmid (pLuBIG) encoding blasticidin resistance linked to eGFP, and luciferase. Bioluminescence of the fibroblasts served as in indicator of ATP levels. Cell viability was measured using the crystal violet staining assay at room temperature. 50 μL media containing cells is incubated with 150 μL of 99.9% methanol for 15 minutes. 100 μL of 0.5% crystal violet (25% methanol) is added for 20 minutes. Each well is emptied and washed twice with 200 μL phosphate buffered saline for 2 minutes. Absorbance (optical density) was acquired at 570 nm using the SpectraMax M3 Spectrophotometer (Molecular Devices) and SoftMax Pro software (ver. 7.0.2).

[3] = system: Mouse embryonic fibroblasts (NIH 3T3 cells); assay: ATP levels in MEFs (luciferase bioluminescence in live cells; standard ATP assay on lysates); format: cell-based; conditions: for Total ATP levels in MEFs: MEFs exposed to each of PLLA, PDLA and stereocomplex PLA extracts plus inhibitor; for increased bioenergetic (ATP) levels: amorphous or crystalline PLA extract-treated fibroblasts plus inhibitor, spatiotemporal and dose-dependent
Procedure: Breakdown products of PLA (hereafter “extracts”) were generated in serum-containing media and used after twelve days of incubation in a shaker at 37° C. The in vitro degradation mimics PLA degradation in vivo. Immune cells were maintained in the PLA extracts for twelve days. BMDMs derived from C57BL/6J mice (Jackson Laboratories) of 3-4 months were used. Mouse embryonic fibroblasts (NIH 3T3 cells, hereafter “MEFs”) were stably transfected with a Sleeping Beauty transposon plasmid (pLuBIG) encoding blasticidin resistance linked to eGFP, and luciferase. Bioluminescence of the fibroblasts served as in indicator of ATP levels. Cell viability was measured using the crystal violet staining assay at room temperature. 50 μL media containing cells is incubated with 150 μL of 99.9% methanol for 15 minutes. 100 μL of 0.5% crystal violet (25% methanol) is added for 20 minutes. Each well is emptied and washed twice with 200 μL phosphate buffered saline for 2 minutes. Absorbance (optical density) was acquired at 570 nm using the SpectraMax M3 Spectrophotometer (Molecular Devices) and SoftMax Pro software (ver. 7.0.2).
To exclude the possibility that changing luciferase expression (by transcription or translation) was responsible for observed bioenergetic changes, wild-type cells were lysed after exposure to PLA extract. Controlled amounts of luciferase and D-luciferin were added to the standard ATP assay. By day 12, there was a 1.9-and 2.3-fold increase in ATP levels among cells exposed to crystalline and amorphous PLA extract, respectively (FIG. 2). To exclude the possibility that PLA extracts affect the biochemical reaction underlying bioenergetic measurements, lysed fibroblasts were exposed to D-luciferin, luciferase and control or PLA extract.
ATP levels in live cells were assessed by bioluminescence on the IVIS Spectrum in vivo imaging system (PerkinElmer) after addition of 150 μg/mL D-luciferin (PerkinElmer). For lysed cells, the standard ATP/ADP kits (Sigma-Aldrich) were used according to manufacturer's instructions.

[4] = system: primary macrophages (BMDMs); assay: Cytokine and chemokine protein levels in macrophage supernatants (MILLIPLEX multiplex, IL-6 ELISA); format: cell-based, mouse; conditions: for abnormally increased levels of IL-1β / abnormally increased levels of IL-6 / abnormally increased levels of MCP-1 / abnormally increased levels of TNF-α: macrophages exposed to PLA extract plus inhibitor
Procedure: Cytokine and chemokine levels were measured using a MILLIPLEX MAP mouse magnetic bead multiplex kit (MilliporeSigma) to assess for IL-6, MCP-1, TNF-a, IL-1b, IL-4, IL-10, IFN-1 and 1L-13 protein expression in supernatants. Data was acquired using Luminex 200 (Luminex Corporation) by the xPONENT software (Version 3.1, Luminex Corporation). […] For statistical analyses, those values were expressed as 3.1 pg/mL. Values exceeding the dynamic range of the assay, in accordance with manufacturer's instruction, were excluded. Additionally, IL-6 ELISA kits (RayBiotech) for supernatants were used according to manufacturer's instructions.

[5] = In-vitro studies indicating effective concentration of 2DG; format: cell-based
Procedure: Amorphous PLA was compounded with 2DG at 190° C. for 3 mins in a DSM 15 cc mini-extruder (DSM Xplore) and pelletizer (Leistritz Extrusion Technology). Our in-vitro studies indicate 1 mM 2DG to be an effective concentration. Accordingly, we estimated that 18 mg of 2DG in 10 g of amorphous PLA will approximate effective concentrations after accounting for potential thermal degradation of 2DG, converting mM to w/w values. […] To exclude the effect of melt-blending as a confounder in our studies, amorphous PLA controls were processed under the same thermal conditions to make “reprocessed” amorphous PLA. Pellets from melt-blending were made into 1.75 mm diameter filaments using an extruder (Filabot EX2) at 170° C. with air set at 93. For surgical implantation, amorphous PLA filaments were cut into 1 mm lengths; four biomaterials were subcutaneously implanted on the dorsum (back) of each mouse, with two cranially (2.5 cm apart) and two caudally (2.5 cm apart).

[6] = macrophages exposed to the PLLA and PDLA extracts plus inhibitor
[7] = BMDMs, prolonged (day 7) exposure to L-lactic acid

In the case of `NOCC(=O)O` [aminooxyacetic acid], the metabolic reprogramming (primary BMDMs [1]) is reported as “inhibited”, the ECAR (primary BMDMs [1]) is reported as “dose-dependent decrease” and the OCR (primary BMDMs [1]) is reported as “dose-dependent decrease”. For the same compound, the PER (primary BMDMs [1]) was “dose-dependent decrease”, the cell viability (primary BMDMs [2]) was “selectively reduced” and the “Total ATP levels in MEFs” value [3] was “decreased”. The “increased bioenergetic (ATP) levels” value [3] was “inhibited”, the “increase in IL-10 expression” value ([4]; amorphous PLA extract plus inhibitor, relative to macrophages exposed to PLA extract) was 3.4 fold and the IL-10 expression ([4]; crystalline PLA extract plus inhibitor, relative to macrophages exposed to PLA extract) was “unchanged”. For the same compound, the “abnormally increased levels of IL-1β” value [4] was “modulated”, the “abnormally increased levels of IL-6” value [4] was “modulated” and the “abnormally increased levels of MCP-1” value [4] was “modulated”. The “abnormally increased levels of TNF-α” value [4] was “modulated”, the IL-10 levels [4, 6] was “increased” and the IL-10 levels ([4]; macrophages treated with stereocomplex PLA extracts plus inhibitor) was “further increased”.
In the case of `O=C(C=Cc1cccnc1)c1ccncc1` [3PO, 3-(3-pyridinyl)-1-(4-pyridinyl)-2-propen-1-one], the metabolic reprogramming (primary BMDMs [1]) is reported as “inhibited”, the ECAR (primary BMDMs [1]) is reported as “dose-dependent decrease” and the OCR (primary BMDMs [1]) is reported as “dose-dependent decrease”. The PER (primary BMDMs [1]) was “dose-dependent decrease”, the cell viability (primary BMDMs [2]) was “selectively reduced” and the “Total ATP levels in MEFs” value [3] was “decreased”. The “increased bioenergetic (ATP) levels” value [3] was “inhibited”, the cytokine values ([4]; in some experiments) was less than 3.2 pg/mL and the “abnormally increased levels of IL-1β” value [4] was “modulated”. The “abnormally increased levels of IL-6” value [4] was “modulated”, the “abnormally increased levels of MCP-1” value [4] was “modulated” and the “abnormally increased levels of TNF-α” value [4] was “modulated”.
In the case of `O=CC[C@@H](O)[C@H](O)[C@H](O)CO` [2DG, 2-deoxyglucose], the effective concentration [5] is reported as 1 mM, the metabolic reprogramming (primary BMDMs [1]) is reported as “inhibited” and the ECAR (primary BMDMs [1]) is reported as “dose-dependent decrease”. The OCR (primary BMDMs [1]) was “dose-dependent decrease”, the PER (primary BMDMs [1]) was “dose-dependent decrease” and the cell viability (primary BMDMs [2]) was “selectively reduced”. The “Total ATP levels in MEFs” value [3] was “decreased”, the “increased bioenergetic (ATP) levels” value [3] was “inhibited” and the “abnormally increased levels of IL-1β” value [4] was “modulated”. For the same compound, the “abnormally increased levels of IL-6” value [4] was “modulated”, the “abnormally increased levels of MCP-1” value [4] was “modulated” and the “abnormally increased levels of TNF-α” value [4] was “modulated”. The IL-10 levels [4, 6] was “increased”.
For `C[C@H](O)C(=O)O` [L-lactic acid], the “increase in glycolytic flux (ECAR)” value (primary BMDMs [1]; [7]) was 2.8 fold, the “increase in monocarboxylate transporter function (PER)” value (primary BMDMs [1]; [7]) was 2.8 fold and the “increase in oxidative phosphorylation (OCR)” value (primary BMDMs [1]; [7]) was 2.3 fold. The “increase in IL-6 protein expression” value ([4]; compared to untreated macrophages) was 2.3 fold.
